Test system: prostate cancer (PC-3)
Experiment: Prostate cancer xenograft in mice, combination with paclitaxel
Type: in vivo
Conditions: ASP9853 in combination with paclitaxel; PC-3 xenograft; data not shown

O.O.O=C(/C=C/c1ccc(Cl)cc1)N[C@@H](Cc1ccccn1)C(=O)NCC(=O)N1CCC(Oc2cc(C(F)(F)F)ncn2)CC1 [ASP9853, (2E)-3-(4-chlorophenyl)-N-[(1S)-2-oxo-2-{[2-oxo-2-(4-{[6-(trifluoromethyl)-4-pyrimidinyl]oxy}-1-piperidinyl)ethyl]amino}-1-(2-pyridinylmethyl)ethyl]acrylamide dehydrate]
Tumor growth inhibition: greater tumor growth inhibition
